Data from publication PMC11233931, “Remodeling tumor‐associated macrophage for anti‐cancer effects by rational design of irreversible inhibition of mitogen‐activated protein kinase‐activated protein kinase 2” (MedComm, 2024).

Legend:
Experiment in all cases: Eurofins kinase selectivity profile against 380 other human recombinant kinases (Table S2)
Format in all cases: biochemical
[1] = molecular target: T1, 380 human recombinant protein kinases (Homo sapiens, UniProt Q6SA08); conditions: TSSK4(h), read-out: Inhibition rate (%)
T1 construct: purchased Eurofins (Celle Lévescault)
T1 sequence (Q6SA08 1-328): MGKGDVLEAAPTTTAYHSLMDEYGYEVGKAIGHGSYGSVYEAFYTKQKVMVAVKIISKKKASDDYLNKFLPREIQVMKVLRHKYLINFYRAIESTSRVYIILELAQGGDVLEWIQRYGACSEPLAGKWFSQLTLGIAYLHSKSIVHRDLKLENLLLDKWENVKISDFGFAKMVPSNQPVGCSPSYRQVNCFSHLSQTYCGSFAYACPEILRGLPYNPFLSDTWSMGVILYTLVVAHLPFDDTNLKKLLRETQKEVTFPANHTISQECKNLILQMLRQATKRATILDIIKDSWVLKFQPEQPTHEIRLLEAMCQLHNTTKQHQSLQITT
How it was run: (§1)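 Selectivity panel of 380 human recombinant protein kinases, screened by Eurofins at a range of concentrations.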

[2] = molecular target: T2, 380 human recombinant protein kinases (Homo sapiens, UniProt Q9UQB9); conditions: Aurora-C(h), read-out: Inhibition rate
T2 construct: purchased Eurofins (Celle Lévescault)
T2 sequence (Q9UQB9 1-309): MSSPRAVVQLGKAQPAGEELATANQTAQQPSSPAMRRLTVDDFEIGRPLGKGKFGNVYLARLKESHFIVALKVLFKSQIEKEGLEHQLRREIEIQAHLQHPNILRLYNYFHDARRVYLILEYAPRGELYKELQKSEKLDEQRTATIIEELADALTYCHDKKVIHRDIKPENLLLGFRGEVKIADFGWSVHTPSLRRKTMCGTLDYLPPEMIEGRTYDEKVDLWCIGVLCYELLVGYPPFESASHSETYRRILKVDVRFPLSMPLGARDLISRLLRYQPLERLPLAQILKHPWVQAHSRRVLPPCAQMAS
How it was run: as §1

[3] = molecular target: T3, 380 human recombinant protein kinases (Homo sapiens, UniProt Q9Y243); conditions: PKBγ(h), read-out: Inhibition rate
T3 construct: purchased Eurofins (Celle Lévescault)
How it was run: as §1

[4] = molecular target: T4, 380 human recombinant protein kinases (Homo sapiens, UniProt Q13523); conditions: PRP4(h), read-out: Inhibition rate
T4 construct: purchased Eurofins (Celle Lévescault)
How it was run: as §1

[5] = molecular target: T5, 380 human recombinant protein kinases (Homo sapiens, UniProt Q9UPE1); conditions: MSSK1(h), read-out: Inhibition rate
T5 construct: purchased Eurofins (Celle Lévescault)
How it was run: as §1

[6] = molecular target: T6, 380 human recombinant protein kinases (Homo sapiens, UniProt Q2M2I8); conditions: AAK1(h), read-out: Inhibition rate
T6 construct: purchased Eurofins (Celle Lévescault)
How it was run: as §1

[7] = molecular target: T7, 380 human recombinant protein kinases (Homo sapiens, UniProt Q9UK32); conditions: Rsk4(h), read-out: Inhibition rate (%)
T7 construct: purchased Eurofins (Celle Lévescault)
How it was run: as §1

[8] = molecular target: T8, 380 human recombinant protein kinases (Homo sapiens, UniProt P36896); conditions: ALK4(h), read-out: Inhibition rate
T8 construct: purchased Eurofins (Celle Lévescault)
T8 sequence (P36896 24-505): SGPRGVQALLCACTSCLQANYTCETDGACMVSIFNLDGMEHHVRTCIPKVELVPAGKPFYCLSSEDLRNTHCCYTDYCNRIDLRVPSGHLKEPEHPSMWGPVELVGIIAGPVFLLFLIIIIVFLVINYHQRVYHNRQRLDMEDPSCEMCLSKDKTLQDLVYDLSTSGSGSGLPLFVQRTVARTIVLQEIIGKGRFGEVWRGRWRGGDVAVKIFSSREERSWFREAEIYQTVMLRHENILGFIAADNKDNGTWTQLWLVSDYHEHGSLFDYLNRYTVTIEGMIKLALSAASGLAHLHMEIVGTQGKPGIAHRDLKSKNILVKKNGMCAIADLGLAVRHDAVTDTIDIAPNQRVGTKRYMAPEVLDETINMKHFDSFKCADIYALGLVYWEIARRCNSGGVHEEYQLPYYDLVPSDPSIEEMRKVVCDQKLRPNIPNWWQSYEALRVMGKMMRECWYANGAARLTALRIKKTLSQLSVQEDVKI
How it was run: as §1

[9] = molecular target: T9, 380 human recombinant protein kinases (Homo sapiens, UniProt P42336, H1047R); conditions: PI3 Kinase (p110α(H1047R)/p85α)(h), read-out: Inhibition rate (%)
T9 construct: purchased Eurofins (Celle Lévescault)
How it was run: as §1

[10] = molecular target: T10, 380 human recombinant protein kinases (Homo sapiens, UniProt Q07002); conditions: CDK18/cyclinY(h), read-out: Inhibition rate
T10 construct: purchased Eurofins (Celle Lévescault)
How it was run: as §1

[11] = molecular target: T11, 380 human recombinant protein kinases (Homo sapiens, UniProt O75716); conditions: STK16(h), read-out: Inhibition rate (%)
T11 construct: purchased Eurofins (Celle Lévescault)
How it was run: as §1

T5 sequence (Q9UPE1 whole entry): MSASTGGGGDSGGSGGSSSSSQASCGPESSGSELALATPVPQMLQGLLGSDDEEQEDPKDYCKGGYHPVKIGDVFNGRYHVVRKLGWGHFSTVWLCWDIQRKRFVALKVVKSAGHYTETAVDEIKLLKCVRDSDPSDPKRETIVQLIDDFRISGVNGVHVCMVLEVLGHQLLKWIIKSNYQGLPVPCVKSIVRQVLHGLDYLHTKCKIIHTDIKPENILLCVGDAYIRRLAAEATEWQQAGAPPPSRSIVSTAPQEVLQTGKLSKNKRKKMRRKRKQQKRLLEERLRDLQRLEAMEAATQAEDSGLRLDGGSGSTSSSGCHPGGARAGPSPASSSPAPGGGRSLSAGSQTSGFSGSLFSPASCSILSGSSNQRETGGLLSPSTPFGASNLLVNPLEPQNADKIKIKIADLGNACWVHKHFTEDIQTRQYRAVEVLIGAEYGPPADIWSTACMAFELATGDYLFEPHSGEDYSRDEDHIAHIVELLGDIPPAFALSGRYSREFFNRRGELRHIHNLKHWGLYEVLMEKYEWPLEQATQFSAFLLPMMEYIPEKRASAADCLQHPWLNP
T6 sequence (Q2M2I8 whole entry): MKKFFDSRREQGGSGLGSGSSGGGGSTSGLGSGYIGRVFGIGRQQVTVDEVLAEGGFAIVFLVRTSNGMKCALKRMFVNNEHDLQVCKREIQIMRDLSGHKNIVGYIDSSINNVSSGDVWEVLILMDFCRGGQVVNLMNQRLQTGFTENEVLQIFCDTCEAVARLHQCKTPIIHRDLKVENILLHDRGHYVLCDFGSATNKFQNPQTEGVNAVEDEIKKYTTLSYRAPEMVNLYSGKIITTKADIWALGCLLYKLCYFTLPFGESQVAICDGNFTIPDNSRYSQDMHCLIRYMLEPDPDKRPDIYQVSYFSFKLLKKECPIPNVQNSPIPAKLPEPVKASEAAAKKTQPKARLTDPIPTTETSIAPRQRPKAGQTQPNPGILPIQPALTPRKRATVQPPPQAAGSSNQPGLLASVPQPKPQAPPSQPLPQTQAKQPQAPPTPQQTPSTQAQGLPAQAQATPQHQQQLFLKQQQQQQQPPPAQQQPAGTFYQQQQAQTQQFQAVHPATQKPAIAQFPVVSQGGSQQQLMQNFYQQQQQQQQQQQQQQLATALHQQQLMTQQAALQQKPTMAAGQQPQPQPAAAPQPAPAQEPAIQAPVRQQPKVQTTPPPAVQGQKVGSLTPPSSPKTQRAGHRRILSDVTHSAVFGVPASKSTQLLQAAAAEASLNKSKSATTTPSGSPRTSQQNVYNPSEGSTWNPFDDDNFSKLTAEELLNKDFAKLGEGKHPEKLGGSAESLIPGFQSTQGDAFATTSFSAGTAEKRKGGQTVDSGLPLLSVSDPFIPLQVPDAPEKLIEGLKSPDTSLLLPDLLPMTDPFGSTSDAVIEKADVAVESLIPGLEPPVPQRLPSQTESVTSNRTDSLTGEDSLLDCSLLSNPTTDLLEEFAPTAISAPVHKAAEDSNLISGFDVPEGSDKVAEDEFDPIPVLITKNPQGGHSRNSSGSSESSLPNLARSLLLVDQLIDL
T3 sequence (Q9Y243 whole entry): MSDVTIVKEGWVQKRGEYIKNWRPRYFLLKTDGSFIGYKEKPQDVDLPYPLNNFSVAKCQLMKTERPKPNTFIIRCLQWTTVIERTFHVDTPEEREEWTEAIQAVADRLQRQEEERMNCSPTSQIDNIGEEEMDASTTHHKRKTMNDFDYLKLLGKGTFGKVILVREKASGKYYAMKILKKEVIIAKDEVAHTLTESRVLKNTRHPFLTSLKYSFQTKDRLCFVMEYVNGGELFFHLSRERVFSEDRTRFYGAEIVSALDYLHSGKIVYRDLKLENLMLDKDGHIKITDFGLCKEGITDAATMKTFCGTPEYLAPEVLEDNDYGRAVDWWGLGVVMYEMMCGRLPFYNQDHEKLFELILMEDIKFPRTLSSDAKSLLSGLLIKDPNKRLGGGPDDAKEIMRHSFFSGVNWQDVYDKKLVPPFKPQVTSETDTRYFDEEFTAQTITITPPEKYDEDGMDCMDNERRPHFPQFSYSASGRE
T11 sequence (O75716 whole entry): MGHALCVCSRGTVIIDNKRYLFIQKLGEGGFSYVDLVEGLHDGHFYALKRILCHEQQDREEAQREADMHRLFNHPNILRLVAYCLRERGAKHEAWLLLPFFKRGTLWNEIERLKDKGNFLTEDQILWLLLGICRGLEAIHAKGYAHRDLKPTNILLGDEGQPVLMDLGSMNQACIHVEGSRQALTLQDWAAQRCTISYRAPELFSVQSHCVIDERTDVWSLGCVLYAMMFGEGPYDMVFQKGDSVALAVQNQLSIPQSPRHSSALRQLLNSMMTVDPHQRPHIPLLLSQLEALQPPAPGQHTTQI
T7 sequence (Q9UK32 whole entry): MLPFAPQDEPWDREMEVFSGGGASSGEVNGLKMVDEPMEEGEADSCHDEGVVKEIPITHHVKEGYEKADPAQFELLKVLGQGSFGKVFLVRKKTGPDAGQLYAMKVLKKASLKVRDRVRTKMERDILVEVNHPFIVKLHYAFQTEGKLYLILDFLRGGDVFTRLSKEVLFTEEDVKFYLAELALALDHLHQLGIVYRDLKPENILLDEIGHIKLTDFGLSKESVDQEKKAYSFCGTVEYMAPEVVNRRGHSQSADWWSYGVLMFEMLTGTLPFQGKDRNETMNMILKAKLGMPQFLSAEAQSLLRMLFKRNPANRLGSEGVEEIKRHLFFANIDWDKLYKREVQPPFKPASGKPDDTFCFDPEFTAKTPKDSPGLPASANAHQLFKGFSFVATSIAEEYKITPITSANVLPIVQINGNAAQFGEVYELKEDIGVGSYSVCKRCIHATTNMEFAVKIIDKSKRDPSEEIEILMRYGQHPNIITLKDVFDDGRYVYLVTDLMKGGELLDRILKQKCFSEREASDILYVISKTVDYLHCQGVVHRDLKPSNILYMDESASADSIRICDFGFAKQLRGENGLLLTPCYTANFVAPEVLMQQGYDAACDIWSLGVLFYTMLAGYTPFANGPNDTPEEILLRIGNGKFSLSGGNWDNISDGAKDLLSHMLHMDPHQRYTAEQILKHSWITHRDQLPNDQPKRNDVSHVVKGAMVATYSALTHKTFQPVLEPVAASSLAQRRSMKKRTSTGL
T4 sequence (Q13523 whole entry): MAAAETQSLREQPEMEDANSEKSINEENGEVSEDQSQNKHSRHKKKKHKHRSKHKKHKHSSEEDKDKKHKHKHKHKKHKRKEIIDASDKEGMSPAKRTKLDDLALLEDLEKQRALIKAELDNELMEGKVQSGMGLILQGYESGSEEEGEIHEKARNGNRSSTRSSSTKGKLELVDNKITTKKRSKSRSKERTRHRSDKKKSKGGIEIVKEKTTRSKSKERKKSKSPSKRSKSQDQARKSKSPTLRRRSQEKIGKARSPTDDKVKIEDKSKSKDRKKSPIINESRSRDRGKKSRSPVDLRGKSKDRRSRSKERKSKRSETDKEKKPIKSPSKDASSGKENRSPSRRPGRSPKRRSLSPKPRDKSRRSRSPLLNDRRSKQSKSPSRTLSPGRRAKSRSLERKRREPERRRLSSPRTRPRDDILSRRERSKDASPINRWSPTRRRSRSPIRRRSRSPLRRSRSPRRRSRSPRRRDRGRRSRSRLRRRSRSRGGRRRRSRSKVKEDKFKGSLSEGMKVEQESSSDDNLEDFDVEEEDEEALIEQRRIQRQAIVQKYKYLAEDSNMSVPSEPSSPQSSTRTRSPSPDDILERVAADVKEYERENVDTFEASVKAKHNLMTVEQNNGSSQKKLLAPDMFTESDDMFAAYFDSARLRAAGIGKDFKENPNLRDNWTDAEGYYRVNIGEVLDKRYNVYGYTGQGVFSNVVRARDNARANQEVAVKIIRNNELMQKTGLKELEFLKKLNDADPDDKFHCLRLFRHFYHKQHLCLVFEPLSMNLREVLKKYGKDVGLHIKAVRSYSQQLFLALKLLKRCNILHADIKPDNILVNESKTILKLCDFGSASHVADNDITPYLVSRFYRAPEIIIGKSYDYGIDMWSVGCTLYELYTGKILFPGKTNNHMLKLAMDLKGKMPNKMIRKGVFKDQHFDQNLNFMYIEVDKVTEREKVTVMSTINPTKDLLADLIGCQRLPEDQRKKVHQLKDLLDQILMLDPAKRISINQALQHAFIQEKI
T10 sequence (Q07002 whole entry): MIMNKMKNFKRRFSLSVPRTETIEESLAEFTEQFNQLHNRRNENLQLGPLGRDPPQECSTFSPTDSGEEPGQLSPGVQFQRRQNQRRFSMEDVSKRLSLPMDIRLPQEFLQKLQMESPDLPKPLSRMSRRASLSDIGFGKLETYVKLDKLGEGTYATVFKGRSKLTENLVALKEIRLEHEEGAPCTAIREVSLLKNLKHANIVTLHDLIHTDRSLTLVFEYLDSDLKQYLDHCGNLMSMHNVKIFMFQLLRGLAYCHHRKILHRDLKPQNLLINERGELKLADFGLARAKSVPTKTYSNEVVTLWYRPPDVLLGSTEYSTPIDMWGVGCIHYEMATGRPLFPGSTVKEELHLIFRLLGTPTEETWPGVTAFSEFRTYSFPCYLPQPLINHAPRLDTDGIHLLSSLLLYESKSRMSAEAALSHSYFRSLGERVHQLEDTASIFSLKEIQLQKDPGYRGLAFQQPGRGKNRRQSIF

C=CC(=O)Nc1cc(-c2cc(-c3cc4c([nH]3)CCNC4=O)ccn2)ccc1OC(F)(F)F [compound 11]
inhibition at 0.01 µM ([1]; 10 nM): 3%
inhibition at 0.1 µM ([1]; 100 nM): 5%
inhibition at 1 µM ([1]; 1000 nM): 2%
inhibition at 0.01 µM ([2]; 10 nM): 2%
inhibition at 0.1 µM ([2]; 100 nM): -5%
inhibition at 1 µM ([2]; 1000 nM): 6%
inhibition at 0.01 µM ([3]; 10 nM): 0%
inhibition at 0.1 µM ([3]; 100 nM): 3%
inhibition at 1 µM ([3]; 1000 nM): 9%
inhibition at 0.01 µM ([4]; 10 nM): -1%
inhibition at 0.1 µM ([4]; 100 nM): -3%
inhibition at 1 µM ([4]; 1000 nM): 12%
inhibition at 0.01 µM ([5]; 10 nM): -7%
inhibition at 0.1 µM ([5]; 100 nM): -4%
inhibition at 1 µM ([5]; 1000 nM): 0%
inhibition at 0.01 µM ([6]; 10 nM): -1%
inhibition at 0.1 µM ([6]; 100 nM): 11%
inhibition at 1 µM ([6]; 1000 nM): 39%
inhibition at 0.01 µM ([7]; 10 nM): -9%
inhibition at 0.1 µM ([7]; 100 nM): -4%
inhibition at 1 µM ([7]; 1000 nM): -13%
inhibition at 0.01 µM ([8]; 10 nM): 26%
inhibition at 0.1 µM ([8]; 100 nM): 16%
inhibition at 1 µM ([8]; 1000 nM): 6%
inhibition at 0.01 µM ([9]; 10 nM): 0%
inhibition at 0.1 µM ([9]; 100 nM): 0%
inhibition at 1 µM ([9]; 1000 nM): 2%
inhibition at 0.01 µM ([10]; 10 nM): -5%
inhibition at 0.1 µM ([10]; 100 nM): 2%
inhibition at 1 µM ([10]; 1000 nM): -3%
inhibition at 0.01 µM ([11]; 10 nM): 0%
inhibition at 0.1 µM ([11]; 100 nM): -3%
inhibition at 1 µM ([11]; 1000 nM): 11%
